In one data set the test system is K1. The following applies: previous study; ref Baartzes et al.; read-out: PfIC50 (K1); cited from earlier work.
The subject of another data set is rodent mouse model. The arrangement: method as in Baartzes et al. To be noted: in vivo, no mice were cured; ref Baartzes et al.; cited from earlier work.
Data set [1] is described as follows: Hydroxyl radical (ROS) generation with H2O2, DCFH2 fluorescent probe. The following applies: 200 μM in 1:4 DMSO/PBS, H2O2 and H2DCF added, 30 min. The text has this:
Fluorogenic redox-sensitive probes are often employed to measure the presence of ROS, due to their low cost, ease of use, and nontoxicity, allowing for spectrofluorimetric measurements. 2′,7′-Dichlorodihydrofluorescein diacetate (DCFH2-DA) is the most widely used fluorogenic probe. Cleavage of the acetate groups, through alkaline hydrolysis, generates 2′,7′-dichlorodihydrofluorescein (DCFH2), which in the presence of oxidants, yields the highly fluorescent 2′,7′-dichlorofluorescein (DCF, λem = 523 nm). The DCFH2 probe reacts with an array of oxidants, making it an ideal indicator of general oxidative stress. […] The presence of these radicals was confirmed by monitoring the fluorescence over time (Figure ). […].
Stock solutions of DCFH2-DA were prepared to 1 mM in 100% DMSO and stored at −20 °C in the dark until use. The deacetylation of DCFH2-DA involved adding 2 μL of a 0.5 M NaOH solution to 200 μL of the 1 mM DCFH2-DA stock solution. The solution was mixed for 30 min, in the dark, at room temperature and then quenched with 800 μL of PBS buffer to obtain a 200 μM H2DCF 1:4 DMSO/PBS solution mixture.
[…]. The fluorometer was blanked using a 1:4 DMSO/PBS solution mixture. To identify hydroxyl radical production, 2 μL of a 0.5% H2O2 solution was added to 900 μL of the 200 μM complex solution in a cuvette at 25 °C. 100 μL of the prepared H2DCF solution (200 μM) was quickly added, and the readings recorded at 530 nm (emission wavelength), at 2 min intervals, over 30 min.

In data set [2] the test system is CHO cell line.
Procedure: (§1) The samples were tested over 48 h against the Chinese hamster ovarian (CHO) cell line to determine general cytotoxicity. […] Quantitative assessment of toxic activity in vitro was determined via the MTT assay using the method described. Cell viability was determined colorimetrically using the breakdown of a dye by enzymes of the electron transport chain, taking place in the mitochondria of metabolically active living cells, as a marker for survival.
(§2) Compounds were tested in triplicate on a single occasion against these cells using the MTT assay. The test samples were prepared to a 10 mM stock solution, in 100% DMSO, and stored at −20 °C until use. Samples were tested as a suspension if not completely dissolved. Further dilutions to the desired starting concentration were freshly prepared in growth media at the start of the experiment.
(§3) Cells were plated to a density of 10^5 cells/well in 96-well plates and allowed to attach for 24 h. […] After 44 h MTT was added, and the plates were read 4 h later at 540 nm on a spectrophotometer following the addition of 100 μL of DMSO and gentle plate-shaking to solubilize and visualize the dye. Survival was plotted against concentration, and the IC50 values were obtained using a nonlinear dose–response curve fitting analysis via the Dotmatics software platform.
The test system of data set [3] is whole-cell NF54 parasites.
Procedure: However, unlike the cell-free assay, the heme fractionation assay isolates both the heme and Hz components via a series of solubilization and separation steps. Furthermore, the absolute amount of each heme species per cell is calculated using the UV–vis data normalized to the flow cytometry parasite cell count.
The IC50 was previously determined using the pLDH assay. Following incubation for 28–32 h, to ensure progression to the trophozoite stage, parasitized red blood cells were saponin lysed to obtain isolated trophozoites. To determine the amount of heme and hemozoin, the trophozoites were then exposed to a series of cellular fractionation steps to successively liberate each heme species. The UV–visible spectra of these fractions were recorded between 400 and 415 nm on a multiwell plate reader. The percentage of each heme species was determined from the absorbance value of the Soret band of the pyridyl heme complex. To determine the absolute levels of each species, an aliquot of the isolated trophozoites was spiked with Trucount beads and stained with SYBR Green. These were run on a flow cytometer to determine absolute counts, which could in turn be used to calculate the absolute levels of each species per cell. The total heme in each of these samples was quantified using a standard curve. GraphPad Prism (v5) was used to analyze the final data set and perform the significance tests.
In data set [4] the test system is CHO cell line. Nature of the data set: Cytotoxicity, MTT assay. On the technique in general: Formazan colour is commonly taken as a measure of viable cells.
Procedure: as §1, §2, §3

SMILES strings stand for the structures. Read-outs that look alike come from different tables or passages of the source.

In general, CC50 refers to the concentration that lowers cell viability or growth by half.

For `Cc1ccc2c(c1)nc(-[c-]1cccc1)n2CCCNc1ccnc2cc(Cl)ccc12.[Fe+2].c1cc[cH-]c1` [Complex C1, 7-chloro-N-(3-(5-(methyl)-2-ferrocenyl-1H-benzo[d]imidazole-1-yl)propyl)quinolin-4-amine], the IC50 with K1 was 0.283 µM. The Reduction in parasitemia with rodent mouse model is recorded as 92%. In data set [1], the “Hydroxyl radical generation (fluorescence intensity over time)” value is listed as “no changes in the fluorescence intensity”. Also, the CC50 with CHO cell line [2] came out at 43.7 ± 2.5 µM.

Turning to `Cc1ccc2c(c1)nc(-[c-]1cccc1CN(C)C)n2CCCNc1ccnc2cc(Cl)ccc12.[Fe+2].c1cc[cH-]c1` (stereo not drawn) [Complex C3, 7-Chloro-N-(3-(5-methyl-2-(2-N,N-dimethylaminomethyl)ferrocenyl-1H-benzo[d]-imidazole-1-yl)propyl) Quinoline-4-amine], the “Hydroxyl radical generation (fluorescence intensity over time)” value in data set [1] is “produce hydroxyl radicals”. The “Hemozoin (Hz) Fe level per cell versus untreated control” value in data set [3] (NF54 parasites at 3× IC50) is listed as “more than five times lower”. Also, the “Free heme level per cell” value in data set [3] (NF54 parasites, 0.5–1.5× the IC50 value) is reported as “steadily increased”. Also, the CC50 in the data set on CHO cell line [4] (read-out: CC50 (CHO) ± SEM, MTT, 48 h, technical triplicate on a single occasion) worked out at 6.1 ± 1.2 µM. Besides, in the data set with CHO cell line [4] (selectivity index), the “SI (CC50 CHO/IC50 NF54)” value is 244.4.

Source of the values: article PMC12344774, “Ferrocenyl Quinoline-Benzimidazole Hybrids: A Multistage Strategy to Combat Drug-Resistant Malaria” (Inorganic Chemistry, 2025).
